Laboratory results taken from patent US20080249153A1, “ANTHELMINTIC FORMULATIONS” (priority 2005, published 2008).
Where two headings read alike, the source gives them in different places.

How the values were obtained:
[1] = Solubility studies of benzimidazoles (triclabendazole, oxfendazole, albendazole, ricobendazole) in different organic solvents; type: physicochemical
Method: As a comparison trials were conducted to determine the solubility of various members of the benzimidazole family in different solvents.
But more importantly it was discovered that triclabendazole is extremely soluble in 2-pyrrolidone and PEG 400 with more than 500 mg of triclabendazole capable of being dissolved in a ml of these solvents. This is particularly advantageous as it allows for formulations of low volume to be formulated for delivery to cattle and other animals.

[2] = Solubility studies of triclabendazole in different alcohols; type: physicochemical
[3] = solvents such as benzyl alcohol, propylene glycol, NMP, 2-pyrollidone, PEG, glycerol formal and butyl dioxitol

Compound: CCCSc1ccc2nc(NC(=O)OC)[nH]c2c1 [albendazole]
- Solubility (in words) [1, 3]: either insoluble or so insignificantly soluble

Compound: CSc1nc2cc(Cl)c(Oc3cccc(Cl)c3Cl)cc2[nH]1 [triclabendazole, 5-Chloro-6-(3,3-dichlorophenoxy)-2-methylthio-1H-benzimidazole]
- Amount dissolved ([2]; solvent 1-butanol): 117.5 mg/mL
- Quantity dissolved in solvent ([2]; solvent 1-butanol): 2 gm/15 ml
- Amount dissolved ([2]; solvent 1-hexanol): 117.5 mg/mL
- Quantity dissolved in solvent ([2]; solvent 1-hexanol): 2 gm/15 ml
- Amount dissolved ([2]; solvent Ethyl alcohol): 88.88 mg/mL
- Quantity dissolved in solvent ([2]; solvent Ethyl alcohol): 2 gm/20 ml
- Amount dissolved ([2]; solvent Isopropyl alcohol): 117.5 mg/mL
- Quantity dissolved in solvent ([2]; solvent Isopropyl alcohol): 2 gm/15 ml
- Amount dissolved ([2]; solvent Methyl alcohol): 88.88 mg/mL
- Quantity dissolved in solvent ([2]; solvent Methyl alcohol): 2 gm/20 ml
- Solubility (in words) [1]: more soluble generally
- Quantity dissolved in 10 ml solvent ([1]; in 10 ml 2-pyrrolidone, flowable in nature): 10.0 g (flowable
- Quantity dissolved in 10 ml solvent ([1]; in 10 ml Benzyl Alcohol, max solubility): 5.0 g (Max
- Quantity dissolved in 10 ml solvent ([1]; in 10 ml DGBE (butyl dioxitol), max solubility): 2.0 g (Max
- Quantity dissolved in 10 ml solvent ([1]; in 10 ml Glyceryl Formal, max solubility): 1 g (Max
- Quantity dissolved in 10 ml solvent ([1]; in 10 ml NMP, max solubility): 4.5 g (Max
- Quantity dissolved in 10 ml solvent ([1]; in 10 ml PEG400, flowable in nature): 10.0 g (flowable
- Quantity dissolved in 10 ml solvent ([1]; in 10 ml Propylene Glycol, max solubility): 1.5 g (Max
- Amount dissolved ([1]; solvent Benzyl Alcohol, max solubility): 357.14 mg/mL
- Amount dissolved ([1]; solvent DGBE (butyl dioxitol), max solubility): 166.66 mg/mL
- Amount dissolved ([1]; solvent Glyceryl Formal, max solubility): 90.91 mg/mL
- Amount dissolved ([1]; solvent NMP (N-methyl pyrrolidone), max solubility): 321.43 mg/mL
- Amount dissolved ([1]; solvent Propylene Glycol, max solubility): 136.36 mg/mL

Compound: CCC[S+]([O-])c1ccc2[nH]c(NC(=O)OC)nc2c1 (centres unmarked) [ricobendazole]
- Solubility (in words) [1, 3]: either insoluble or so insignificantly soluble

Compound: COC(=O)Nc1nc2ccc([S+]([O-])c3ccccc3)cc2[nH]1 (centres unmarked) [oxfendazole]
- Solubility (in words) [1]: either insoluble or so insignificantly soluble
